Data: US20190008810A1, “METHOD FOR PREVENTION, TREATMENT AND ALLEVIATION OF INFECTIOUS DISEASES AND DISORDERS” (REPLICON HEALTH OY, priority 2016, published 2019)

Legend:
[1] = system: bacterial and/or virus infection of respiratory tract; assay: Healing from more severe respiratory tract infection in S1, Example 1d; assay type: in vivo, human
Source text: Clear symptoms of bacterial and/or virus infection in S1 had started 7 days earlier. Original cause of the disease can also be acquired earlier, i.e. it can have been some hiding pathogen like tuberculosis bacteria that exploits tempting opportunities to attack the body when its defenses are weakened by some physical and/or mental stress (in this case stress could have been also positive stress from overly active days). […] On Friday, they were in an activity theme park with the family and next day, on Saturday they drove for 2 hours to a birthday party lasting to Sunday morning hours, and finally on Sunday visited museum that required 500 km of extra driving there and back. Next day, i.e. on Monday morning, the initiation of infectious condition was felt very clearly.
On Friday afternoon, fever had risen to 37.40 Celsius that is relatively high fever for S1 whose normal temperature is 36.60 Celsius (C) in rest during the day. Fever remained at 37.40 C until the night. During Saturday, the disease and related fever continued. On Sunday morning, temperature was slightly elevated (36.58 C) compared to the normal morning temperature (36.2-36.4 C). Otherwise the general condition was good on this Sunday morning but during the day fever again rose to 37.15 C by the afternoon and the symptoms in respiratory tract got more severe, resembling intensifying bronchitis or similar inflammatory condition.
By Sunday afternoon it started to seem evident that the immune system of S1 (even assisted by almost perfect rest for 3 days already) would not be able to provide a fast resolution to the potentially serious infectious condition. The Double and the Local Enforcements should be started as soon as possible. (Note: acute fever responses, presented in FIG. 5 and FIG. 11 for S1 have been observed from following administrations of D-glyceric acid in water and calcium salt dehydrate.)
At 12:41 S1 took 2×250 mg of D-glyceric acid calcium salt mixed into water to initiate the DGA Activation. At 0715 pm S1 took 2×180 mg of D-glyceric acid calcium salt mixed into water to keep the DGA Activation alive.

[2] = 4-day healthy human nutritional test, blood bilirubin; assay type: in vivo; details: 5-6 mg/kg/twice a day
Procedure: S4 had already participated in 4-day healthy volunteer test with the DGA Activation. In that earlier non-acute DGA dosing experiment the last dose of D-glyceric acid mixed into water was received previous night, i.e. 10-12 hours before the blood test. In this test the positive effects of the DGA Activation in health/subclinical stress were observed. […] This was the case for all tested subjects including S1 in Examples 1b-1d (see Table 1e below).

[3] = 3-week safety feeding study with 80 rats; assay type: in vivo; details: three doses mixed into chow, 3 weeks; highest more than 100 times human doses
Procedure: Before initiating any clinical tests full proof of safety was received from 3 week in vivo feeding experiments with rats. This 3-week safety study with 80 rats was conducted in Finnish National Institute of Health with three different D-glyceric acid doses mixed into chow. […] Highest doses with rats in the safety study were more than 100 times the doses used for humans in any of the shorter tests presented here.

## O=C(O)[C@H](O)CO [DGA, D-glyceric acid]
[1]; S1, Monday
  body temperature, highest during workday: 36.87 C
[1]; S1, Monday 0630 am
  body temperature: 36.38 C
[1]; S1, Monday 0900 pm
  body temperature: 36.71 C
[1]; S1, Monday 1036 pm
  body temperature: 36.68 C
[1]; S1, Sunday 07:10 pm, before second dose
  body temperature: 36.60 C
[1]; S1, Sunday 0648 pm after 2×250 mg at 12:41, 37.15 C before
  body temperature: 36.58 C
[1]; S1, Sunday 0652 pm
  body temperature: 36.52 C
[1]; S1, Sunday 1015 pm
  body temperature: 36.60 C
[1]; S1, Sunday 1035 pm
  body temperature: 36.61 C
[2]; subject S1
  S-Bil-Kj, 4 day change from zero control: −17.4%
[2]; subject S1, fasting blood, non-acute
  S-Bil, 4 day change from zero control: −19.1%
[2]; subject S2
  S-Bil, 4 day change from zero control: −22.8%
  S-Bil-Kj, 4 day change from zero control: −23.3%
[2]; subject S3
  S-Bil, 4 day change from zero control: −58.1%
  S-Bil-Kj, 4 day change from zero control: −58.4%
[2]; subject S4
  S-Bil, 4 day change from zero control: −12.6%
  S-Bil-Kj, 4 day change from zero control: −8.8%
[3]
  adverse health effects (feed intake, body weight development): No adverse health effects were noticed
